Two compounds from patent US20260262643A1, “HERBICIDAL BENZOXAZINES” (FMC CORPORATION, priority 2022, published 2026) can be followed below.

Like-named read-outs stand apart in the source and are kept apart here.

Assay [1] has as its system corn. Description: Test A preemergence. In kind it is in vivo, Zea mays. The settings on record: Zea mays, pre-emergence, 240 h; for Corn plant response rating (crop injury, 0 = no effect, 100 = complete kill) at 125 g/ha: 125 g ai/ha; for Corn plant response rating (crop injury, 0 = no effect, 100 = complete kill) at 500 g/ha: 500 g ai/ha. In outline:
(§1)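 Visual injury ratings on a 0–100 scale (100 = complete control) versus untreated controls, taken 10 days after treatment in greenhouse. Preemergence: directed soil spray onto seeded loam/sand. Postemergence: foliar application at one- to two-leaf stage, plants 2–10 cm. Formulation: non-phytotoxic solvent plus surfactant.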

The subject of assay [2] is kochia. Kind of assay: Test A preemergence. In kind it is in vivo, Bassia scoparia. The settings on record: Bassia scoparia, pre-emergence, 240 h, read-out: Plant response rating, Kochia; for pest or weed control at 125 g/ha: 125 g ai/ha; for pest or weed control at 500 g/ha: 500 g ai/ha. The essentials:
as §1

The next assay deals with pigweed, palmer. Description: Test A preemergence. In kind it is in vivo, Amaranthus palmeri. The settings on record: Amaranthus palmeri, pre-emergence, 240 h, read-out: Plant response rating, Pigweed, Palmer; for pest or weed control at 125 g/ha: 125 g ai/ha; for pest or weed control at 500 g/ha: 500 g ai/ha. The essentials: as §1
The next assay concerns ragweed. Kind of assay: Test A preemergence. The settings on record: Ambrosia artemisiifolia, pre-emergence, 240 h, read-out: Plant response rating, Ragweed; for pest or weed control at 125 g/ha: 125 g ai/ha; for pest or weed control at 500 g/ha: 500 g ai/ha. In kind it is in vivo, Ambrosia artemisiifolia. The essentials:
as §1

A further assay concerns ryegrass, Italian. Kind of assay: Test A preemergence. In kind it is in vivo, Lolium multiflorum. The settings on record: Lolium multiflorum, pre-emergence, 240 h, read-out: Plant response rating, Ryegrass, Italian; for pest or weed control at 125 g/ha: 125 g ai/ha; for pest or weed control at 500 g/ha: 500 g ai/ha. The essentials:
as §1

The next assay has as its system wheat. Description: Test A preemergence. In kind it is in vivo, Triticum aestivum. The settings on record: Triticum aestivum, pre-emergence, 240 h, read-out: Plant response rating, Wheat; for plant injury at 125 g/ha: 125 g ai/ha; for plant injury at 500 g/ha: 500 g ai/ha. In outline:
as §1

Assay [3] has as its system corn. Kind of assay: Test A postemergence. In kind it is in vivo, Zea mays. The settings on record: Zea mays, post-emergence, 240 h, postemergence, 10 days, 0 to 100 scale (0 no effect, 100 complete control); for Corn plant response rating (crop injury, 0 = no effect, 100 = complete kill) at 500 g/ha: 500 g ai/ha. The essentials: as §1
Assay [4] deals with kochia. Description: Test A postemergence. In kind it is in vivo, Bassia scoparia. The settings on record: Bassia scoparia, post-emergence, 240 h, postemergence, 10 days, 0 to 100 scale (0 no effect, 100 complete control); for pest or weed control at 125 g/ha: 125 g ai/ha; for pest or weed control at 500 g/ha: 500 g ai/ha. The essentials:
as §1

In another assay the test system is soybean. Kind of assay: Test A postemergence. In kind it is in vivo, Glycine max. The settings on record: Glycine max, post-emergence, 240 h, postemergence, 10 days, 0 to 100 scale (0 no effect, 100 complete control); for plant injury at 500 g/ha: 500 g ai/ha, visual injury, read-out: Plant response rating, Soybean. The essentials: as §1
The next assay concerns horseweed. Kind of assay: Test A postemergence. In kind it is in vivo, Erigeron canadensis. The settings on record: Erigeron canadensis, post-emergence, 240 h, postemergence, 10 days, 0 to 100 scale (0 no effect, 100 complete control); for pest or weed control at 125 g/ha: 125 g ai/ha; for pest or weed control at 500 g/ha: 500 g ai/ha. The essentials:
as §1

The test system of a further assay is barnyardgrass. Description: Test B flooded paddy test. In kind it is in vivo, Echinochloa crus-galli. The settings on record: Echinochloa crus-galli, 312 h, 250 g ai/ha, Flood, 13 days, 0 to 100 scale (0 no effect, 100 complete control); read-out: Plant response rating, Barnyardgrass. The essentials: (§2)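 Two-leaf plants, 3 cm flood, in-water application, 13-day greenhouse hold, visual 0–100 rating vs untreated checks.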

Another assay concerns ducksalad. Kind of assay: Test B flooded paddy test. In kind it is in vivo, Heteranthera limosa. The settings on record: Heteranthera limosa, 312 h, 250 g ai/ha, Flood, 13 days, 0 to 100 scale (0 no effect, 100 complete control); read-out: Plant response rating, Ducksalad. In outline:
as §2

The next assay concerns rice. Kind of assay: Test B flooded paddy test. In kind it is in vivo, Oryza sativa. The settings on record: Oryza sativa, 312 h; 250 g ai/ha, Flood, 13 days, 0 to 100 scale (0 no effect, 100 complete control); read-out: Plant response rating, Rice. In outline: as §2
Setting [5] is: visual injury after 10 days, 0 to 100 scale, 0 is no effect, 100 is complete control.
Setting [6] is: visual injury, read-out: Plant response rating, Kochia.
[7] abbreviates: visual injury, read-out: Plant response rating, Horseweed.
The mark [8] stands for this setting: 0 to 100 scale (0 no effect, 100 complete control), 10 days.

Consider `Cc1ccc(-n2ncnc2C)cc1C(=O)N1C[C@H](C)Oc2c(Cl)cccc21` (single isomer, unassigned) [Compound 126], for which the Corn plant response rating (crop injury, 0 = no effect, 100 = complete kill) at 125 g/ha in the assay on corn [1] (setting [5]) came to 0%. In addition, the results for the Corn plant response rating (crop injury, 0 = no effect, 100 = complete kill) at 500 g/ha in the assay with corn [1] (setting [5]) and with corn [3] (visual injury) were 40% and 10%, respectively. For the same compound, the pest or weed control at 125 g/ha in the assay on kochia [2] (setting [5]) is 0%; in the assay on pigweed, palmer (setting [5]) it was 20%; with ragweed (setting [5]) it was 0%; in the assay with ryegrass, Italian (setting [5]), 40%; in the assay on kochia [4] (read-out: Kochia plant response rating), 10%; with horseweed (read-out: Horseweed plant response rating) it was 0%. In addition, the pest or weed control at 500 g/ha turned out to be 0% in the assay with kochia [2] (setting [5]); 60% in the assay with pigweed, palmer (setting [5]); 0% in the assay with ragweed (setting [5]); 70% in the assay on ryegrass, Italian (setting [5]); 20% in the assay on kochia [4] (setting [6]); 40% in the assay with horseweed (setting [7]). Also, the plant injury at 125 g/ha with wheat (setting [5]) worked out at 0%; with corn [3] (125 g ai/ha, read-out: Corn plant response rating) it was 0%; in the assay with soybean (125 g ai/ha, read-out: Soybean plant response rating), 40%. Besides, the plant injury at 500 g/ha was found to be 30% in the assay on wheat (setting [5]) and 60% in the assay with soybean. Also, the pest or weed control at 250 g/ha in the assay with barnyardgrass and in the assay with ducksalad was 0% each time. Besides, the plant injury at 250 g/ha with rice worked out at 0%.
On to `Cc1ccc(-n2cnc(C(C)(C)C)n2)cc1C(=O)N1C[C@H](C)Oc2c(Cl)cccc21` [Compound 76, [(2S)-8-Chloro-2,3-dihydro-2-methyl-4H-1,4-benzoxazin-4-yl][5-[3-(1,1-dimethylethyl)-1H-1,2,4-triazol-1-yl]-2-methylphenyl]methanone], for which the Corn plant response rating (crop injury, 0 = no effect, 100 = complete kill) at 125 g/ha was determined as 40% in the assay with corn [1] (setting [5]) and 60% in the assay with corn [3] (125 g ai/ha, visual injury). The Corn plant response rating (crop injury, 0 = no effect, 100 = complete kill) at 500 g/ha in the assay on corn [1] (setting [8]) was 50%; in the assay on corn [3] (visual injury), 60%. Further, the pest or weed control at 125 g/ha in the assay on kochia [2] (setting [5]) came to 70%; with pigweed, palmer (setting [5]), 100%; with ragweed (setting [5]) it was 30%; in the assay with ryegrass, Italian (setting [5]), 100%; in the assay with kochia [4] (setting [6]), 90%; in the assay with horseweed (setting [7]) it was 70%. Also, the pest or weed control at 500 g/ha was found to be 100% in the assay on kochia [2] (setting [8]); 100% with pigweed, palmer (setting [8]); 30% with ragweed (setting [8]); 100% in the assay on ryegrass, Italian (setting [8]); 90% in the assay with kochia [4] (setting [6]); 80% with horseweed (setting [7]). Besides, the plant injury at 125 g/ha with wheat (setting [5]) was found to be 60%. Further, the plant injury at 500 g/ha in the assay with wheat (setting [8]) is 90%; with soybean it was 100%. Also, the pest or weed control at 250 g/ha in the assay on barnyardgrass worked out at 25%; in the assay on ducksalad, 20%. The plant injury at 250 g/ha in the assay with rice is 0%.
